Paper PMC12018053 (Biochemistry and Biophysics Reports, 2025)
In brackets after ≈: the same amount, converted by molar mass.

Experiments:
Mouse sEH = target: T1, Mouse sEH (Mus musculus, UniProt P34914); assay: sEH fluorescent-based inhibition assay; type: biochemical
T1 sequence (P34914 1-554): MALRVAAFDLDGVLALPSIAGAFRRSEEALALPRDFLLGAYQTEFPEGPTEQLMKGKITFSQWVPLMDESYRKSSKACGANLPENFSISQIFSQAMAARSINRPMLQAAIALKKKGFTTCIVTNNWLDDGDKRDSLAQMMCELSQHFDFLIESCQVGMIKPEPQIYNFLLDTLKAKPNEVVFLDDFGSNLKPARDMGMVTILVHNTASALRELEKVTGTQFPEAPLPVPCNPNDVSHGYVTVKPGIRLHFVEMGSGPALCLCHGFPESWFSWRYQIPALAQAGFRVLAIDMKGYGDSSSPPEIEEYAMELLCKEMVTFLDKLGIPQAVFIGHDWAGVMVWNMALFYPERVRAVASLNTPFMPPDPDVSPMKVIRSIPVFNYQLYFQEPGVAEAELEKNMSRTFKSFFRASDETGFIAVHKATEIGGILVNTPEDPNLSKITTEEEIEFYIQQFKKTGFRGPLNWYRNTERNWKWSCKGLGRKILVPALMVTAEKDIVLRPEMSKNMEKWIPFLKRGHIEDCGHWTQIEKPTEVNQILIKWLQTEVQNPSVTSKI

Rat sEH = target: T2, Rat sEH (Rattus norvegicus, UniProt P80299); assay: sEH fluorescent-based inhibition assay; type: biochemical
T2 sequence (P80299 1-554): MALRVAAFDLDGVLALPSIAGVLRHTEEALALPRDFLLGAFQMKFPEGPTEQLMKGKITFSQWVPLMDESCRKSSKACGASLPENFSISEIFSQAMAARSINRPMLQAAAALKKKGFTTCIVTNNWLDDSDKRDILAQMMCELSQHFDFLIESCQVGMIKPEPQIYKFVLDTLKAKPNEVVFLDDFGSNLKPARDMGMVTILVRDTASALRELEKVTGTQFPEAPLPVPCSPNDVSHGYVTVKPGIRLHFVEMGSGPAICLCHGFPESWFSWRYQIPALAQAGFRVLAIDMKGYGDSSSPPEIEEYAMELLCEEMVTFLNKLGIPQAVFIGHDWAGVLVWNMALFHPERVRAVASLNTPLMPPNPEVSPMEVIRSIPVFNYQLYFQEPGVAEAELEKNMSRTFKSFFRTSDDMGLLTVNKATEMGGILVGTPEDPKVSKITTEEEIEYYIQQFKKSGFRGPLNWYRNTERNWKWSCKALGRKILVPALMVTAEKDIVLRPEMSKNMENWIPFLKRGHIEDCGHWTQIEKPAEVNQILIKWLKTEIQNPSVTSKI

physchem = conditions: sodium phosphate buffer, 24 °C, pH 7.4, aqueous buffer, kinetic from dmso stock
Human sEH = target: T3, Human sEH (Homo sapiens, UniProt P34913); assay: sEH fluorescent-based inhibition assay; type: biochemical
T3 sequence (P34913 1-555): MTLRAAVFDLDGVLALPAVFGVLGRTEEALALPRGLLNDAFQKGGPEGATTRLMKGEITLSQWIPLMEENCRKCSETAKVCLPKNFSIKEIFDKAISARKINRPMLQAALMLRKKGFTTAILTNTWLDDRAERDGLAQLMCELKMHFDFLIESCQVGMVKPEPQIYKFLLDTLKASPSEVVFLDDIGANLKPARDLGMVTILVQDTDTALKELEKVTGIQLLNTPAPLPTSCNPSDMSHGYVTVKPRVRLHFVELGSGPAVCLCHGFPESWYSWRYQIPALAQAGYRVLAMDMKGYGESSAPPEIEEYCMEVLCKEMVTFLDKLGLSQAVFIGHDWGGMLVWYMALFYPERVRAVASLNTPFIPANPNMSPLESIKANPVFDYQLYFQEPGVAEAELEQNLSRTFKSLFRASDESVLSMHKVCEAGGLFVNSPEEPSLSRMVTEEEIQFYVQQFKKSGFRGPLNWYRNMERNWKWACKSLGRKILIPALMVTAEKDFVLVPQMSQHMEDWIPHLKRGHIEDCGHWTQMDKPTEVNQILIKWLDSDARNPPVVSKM

[1] = test system: temporomandibular joint (TMJ); conditions: local administration; cited from earlier work
rats = conditions: 1 mg/kg; cited from earlier work

Row | IC50 (Mouse sEH) | IC50 (Rat sEH) | solubility (physchem) | IC50 (Human sEH) | SMILES | Effect on formalin-induced hyperalgesia within the temporomandibular joint [1] | Effect on NTG-induced trigeminal hyperalgesia (rats)
1 | 283 nM | 3.7 nM | 56 µM (≈ 28.3 µg/mL) | 3.7 nM | O=C(Nc1ccc(-c2nccc3ccccc23)cc1)C1CCN(S(=O)(=O)c2ccccc2Cl)CC1 [Compound 4a, 1-((2-chlorophenyl)sulfonyl)-N-(4-(isoquinolin-1-yl)phenyl)piperidine-4-carboxamide] |  | 
2 | 236 nM | 11.5 nM | 51.6 µM (≈ 26.1 µg/mL) | 18.7 nM | O=C(Nc1ccc(-c2cc3ccccc3cn2)cc1)C1CCN(S(=O)(=O)c2ccccc2Cl)CC1 [Compound 4b, 1-((2-chlorophenyl)sulfonyl)-N-(4-(isoquinolin-3-yl)phenyl)piperidine-4-carboxamide] |  | 
3 | 22.3 nM | 0.8 nM | 49.2 µM (≈ 24.9 µg/mL) | 0.4 nM | O=C(Nc1ccc(-c2cncc3ccccc23)cc1)C1CCN(S(=O)(=O)c2ccccc2Cl)CC1 [Compound 4c, 1-((2-chlorophenyl)sulfonyl)-N-(4-(isoquinolin-4-yl)phenyl)piperidine-4-carboxamide] |  | 
4 | 30.6 nM | 2.2 nM | 40 µM (≈ 20.3 µg/mL) | 0.4 nM | O=C(Nc1ccc(-c2cccc3cnccc23)cc1)C1CCN(S(=O)(=O)c2ccccc2Cl)CC1 [Compound 4d, 1-((2-chlorophenyl)sulfonyl)-N-(4-(isoquinolin-5-yl)phenyl)piperidine-4-carboxamide] |  | 
5 | 51.3 nM | 0.5 nM | 55.8 µM (≈ 28.2 µg/mL) | 1.8 nM | O=C(Nc1ccc(-c2ccc3cnccc3c2)cc1)C1CCN(S(=O)(=O)c2ccccc2Cl)CC1 [Compound 4e, 1-((2-chlorophenyl)sulfonyl)-N-(4-(isoquinolin-6-yl)phenyl)piperidine-4-carboxamide] |  | 
6 | 69 nM | 4.7 nM | 65.6 µM (≈ 33.2 µg/mL) | 1.4 nM | O=C(Nc1ccc(-c2cccc3ccncc23)cc1)C1CCN(S(=O)(=O)c2ccccc2Cl)CC1 [Compound 4g, 1-((2-chlorophenyl)sulfonyl)-N-(4-(isoquinolin-8-yl)phenyl)piperidine-4-carboxamide] |  | 
7 | 188 nM | 1.9 nM | 66.7 µM (≈ 30.4 µg/mL) |  | O=C(Nc1ccc(-c2ccccn2)cc1)C1CCN(S(=O)(=O)c2ccccc2Cl)CC1 [Compound 4h, 1-((2-chlorophenyl)sulfonyl)-N-(4-(pyridin-2-yl)phenyl)piperidine-4-carboxamide] |  | 
8 | 127 nM | 2.8 nM | 51.1 µM (≈ 23.3 µg/mL) | 1.3 nM | O=C(Nc1ccc(-c2cccnc2)cc1)C1CCN(S(=O)(=O)c2ccccc2Cl)CC1 [Compound 4i, 1-((2-chlorophenyl)sulfonyl)-N-(4-(pyridin-3-yl)phenyl)piperidine-4-carboxamide] |  | 
9 | 133 nM | 3.1 nM | 50.9 µM (≈ 23.2 µg/mL) | 1.8 nM | O=C(Nc1ccc(-c2ccncc2)cc1)C1CCN(S(=O)(=O)c2ccccc2Cl)CC1 [Compound 4j, 1-((2-chlorophenyl)sulfonyl)-N-(4-(pyridin-4-yl)phenyl)piperidine-4-carboxamide] |  | 
10 | 226 nM | 1.6 nM | 43.4 µM (≈ 20.4 µg/mL) | 4.7 nM | Cc1cccc(-c2ccc(NC(=O)C3CCN(S(=O)(=O)c4ccccc4Cl)CC3)cc2)n1 [Compound 4k, 1-((2-chlorophenyl)sulfonyl)-N-(4-(6-methylpyridin-2-yl)phenyl)piperidine-4-carboxamide] |  | 
11 | 499 nM | 10.3 nM | 36.4 µM (≈ 17.1 µg/mL) | 5.1 nM | Cc1ccnc(-c2ccc(NC(=O)C3CCN(S(=O)(=O)c4ccccc4Cl)CC3)cc2)c1 [Compound 4l, 1-((2-chlorophenyl)sulfonyl)-N-(4-(4-methylpyridin-2-yl)phenyl)piperidine-4-carboxamide] |  | 
12 | 175 nM | 1.1 nM | 49.4 µM (≈ 23.2 µg/mL) | 2.6 nM | Cc1cncc(-c2ccc(NC(=O)C3CCN(S(=O)(=O)c4ccccc4Cl)CC3)cc2)c1 [Compound 4m, 1-((2-chlorophenyl)sulfonyl)-N-(4-(5-methylpyridin-3-yl)phenyl)piperidine-4-carboxamide] |  | 
13 | 259 nM | 3.6 nM | 53 µM (≈ 24.9 µg/mL) | 5.8 nM | Cc1cc(-c2ccc(NC(=O)C3CCN(S(=O)(=O)c4ccccc4Cl)CC3)cc2)ccn1 [Compound 4n, 1-((2-chlorophenyl)sulfonyl)-N-(4-(2-methylpyridin-4-yl)phenyl)piperidine-4-carboxamide] |  | 
14 |  |  |  |  | CCC(=O)N1CCC(NC(=O)Nc2ccc(OC(F)(F)F)cc2)CC1 [TPPU] | prevented formalin-induced hyperalgesia | 
15 |  |  |  |  | NC(=O)c1cccc(-c2cc(OC(=O)NC3CCCCC3)ccc2O)c1 [URB937] |  | reversed NTG-induced trigeminal hyperalgesia
